Laboratory results reported in patent publication US20250018002A1, “Gap Junction Modulators and Their Use for the Treatment of Age-Related Macular Degeneration” (Breye Therapeutics APS, priority 2021, published 2025).
“Also recorded” adds a separate entry of the source.

Key:
[1] = tested on: Human retinal pigment epithelial cells (ARPE-19); assay: Tight junction organization rate (TiJOR), anti-ZO-1 immunocytochemistry in stressed ARPE-19 monolayers; type: cell-based; conditions: danegaptide 100 nM, 24 h pre-treatment, then 48 h 30 mM glucose + sublethal tBHP; n=13-16
Description: For immunocytochemistry, ARPE-19 cells were grown to confluency in chamber slides for 72 h. Cells were then be pre-treated with Danegaptide (DGP; 100 nM) or vehicle control for 24 h. Subsequently, cells were challenged with a combination of sublethal oxidative stress (250 μM tert-butyl hydroperoxide; Millipore Sigma, St. Louis, MO) and hyperglycemia (30 mM glucose; Millipore Sigma, St. Louis, MO) for 48 h, in the continued presence of 100 nM DGP or vehicle.
Cells were labelled with anti-ZO-1 antibody (mouse anti-human 70-1, […], cat #339100, Invitrogen, Thermo Fisher Scientific, Carlsbad, CA) in antibody solution (3% normal goat serum, 1% bovine serum albumin, 0.5% Triton X-100, 0.05% sodium azide in 0.1 M Phosphate buffer pH 7.4) for 2 h at room temperature. […]
The tight junction organization rate (TiJOR) was calculated from confocal images, as described previously (Terryn et al., 2013). […]
Tight junction organization was assessed by immunocytochemistry using anti-zonula occludens 1 (ZO-1) immunostaining (bottom images of FIG. 2; that is, FIG. 2B), a major component of Tight Junctions that binds the cytoplasmic domain of both the Gap Junction transmembrane protein, Cx43, and the TJ transmembrane proteins, occludin(s) and claudin(s). The Tight Junction organization index (TiJOR) was calculated according to Terryn et al., 2013 and measures the degree of TJ dependent cell-cell coupling.

[2] = tested on: STZ-induced DR in the Brown Norway rat; assay: SD-OCT retinal thickness in STZ-induced diabetic retinopathy; type: in vivo; conditions: week 9 after STZ
Description: (§1) Diabetes was induced in the Brown Norway rats (aged 9-10 weeks) by a single dose of streptozotocin (STZ; 65 mg/kg. Sigma) in 10 mM sodium citrate buffer, pH 4.5. After the STZ injection, rats were placed in their cages with ad libitum food and 10% (w/v) sucrose solution in tap water for 48 h. The next morning, 5% glucose (1 ml) was injected intraperitoneally or subcutaneously to all induced rats. Four days after the first STZ injection, the success of the induction was monitored by measuring the blood glucose levels from the saphenous vein. The induction of diabetes was considered successful when the blood glucose values measured by the rapidmeter were equal or higher than 16 mmol/l (288 mg/dl). Animals that were not diabetic based on this criterion 96 h after the first STZ injection received a second STZ injection.
(§2) The selected rats were monitored for blood glucose levels and animal health for 6 weeks, and then treated with weekly intravitreal (IVT) injections of vehicle or test compounds for three weeks for a total of 3× IVT eye injections per eye per animal.
(§3) For IVT treatment administration, the animals were anesthetized animals, placed under a stereoscope (Leica Microsystems), and a drop of iodine was applied on the cornea and allowed to spread evenly (Minims Povidone lodine 5%, Bausch & Lomb). A small incision in the […] exposing the vitreous chamber was performed using a 30 G needle near the limbus. A microsyringe with a 33G needle (Hamilton Bonaduz AG, Bonaduz) attached was used to inject the compounds into the intravitreal space. The test solution was injected into the intravitreal space for 10 s, the needle was kept in place for additional 30 s before being removed to avoid the reflux of the compound. Chloramphenicol ointment was applied after the injection (Oftan Chlora, Santen Oy). The different treatments were administered three times by bilateral intravitreal administration of a volume of 5 μl at weeks six, seven, and eight after STZ induction.
Anesthetized rats were imaged with SD-OCT (Envisu R2200. Bioptigen Inc./Leica Microsystems) retinal scan at week nine as shown in FIG. 5C. The scanned area covers a 2.4×2.4 mm^2 of the retina centred around the optic nerve. Each scan is composed of 100 B Scans each one composed of 1000 A Scans. SD-OCT was performed on both eyes at week nine after DR induction prior to sacrifice and sampling.
The retinal thickness at week nine was analyzed by a convolutional neural network based on U-net architecture using transfer learning approach. The resulting segmentation masks were used to measure the layer thickness in each pixel-width column, i.e. a-scan, resulting in 1000 measuring points for each layer per one b-scan. Only measuring points that passed the automatic quality control criteria set were used in the calculations. The thickness results were presented as SD-OCT measurements of the inner retina, including the nerve ganglion cell layer, inner plexiform and inner nuclear layers; and the outer retina, including the outer plexiform layer, outer nuclear layer, inner and outer segment, and RPE/choroid. […] See FIGS. 5, 7 and 8 for the results of SD-OCT.
SD-OCT scans were taken at week nine prior to sampling. The retinal scans were segmented, and the thickness was analyzed by a convolutional neural network algorithm.
Outer retinal thickness was quantified from SD-OCT images from 24 locations to generate a mean thickness of outer retinal thickness. Outliers were removed using the GROUT method (Q=1%), leading to the removal of a total of 5 outliers (naïve: 0, STZ+Vehicle: 1; STZ+AF564: 1; STZ+Danegaptide: 1; STZ+AF564+Danegaptide: 2).
SD-OCT scans were taken at week nine prior to sampling. Retinal scans were segmented and the thickness was analyzed by a convolutional neural network algorithm. Inner retinal thickness was analyzed by region (FIG. 8).

[3] = tested on: STZ-induced DR in the Brown Norway rat; assay: Evans Blue retinal extravasation (vascular leakage) in STZ-induced diabetic retinopathy; type: in vivo; conditions: week 9 after STZ, 3 weekly IVT injections
Description: as §1, with “Animals that were not diabetic based on this criterion 96 h after the first STZ injection received a second STZ injection.” left out
The selected rats were monitored for blood glucose levels and animal health for 6 weeks, and then treated with weekly intravitreal (IVT) injections of vehicle or test compounds for three weeks for a total of 3× IVT eye injections per eye per animal. […]
Retinas were homogenized in formamide in a 1:10 ratio (w/v) and incubated overnight at +70°. […] Absorbance (λ=620 nm) of the samples was measured using a plate reader (Cytation 3, BioTek Instruments Inc., Winooski, VT) and the concentration of Evans Blue in each sample was calculated against a standard curve of Evans Blue and normalized to tissue weight. […]

[4] = tested on: STZ-induced DR in the Brown Norway rat; assay: PAS staining of trypsin-digested retinal flat mounts: pericytes, pericyte ghosts, acellular capillaries; type: in vivo; conditions: week 9 after STZ
Description: as §1, §2
For IVT treatment administration, the animals were anesthetized animals, placed under a stereoscope (Leica Microsystems), and a drop of iodine was applied on the cornea and allowed to spread evenly (Minims Povidone lodine 5%, Bausch & Lomb). […]
Four to six individual images obtained from a central area, and from a peripheral area of the retinal vasculature were acquired using a Leica Thunder 3D Tissue Imager (Leica Microsystems). The number of acellular capillaries, the number of pericytes and the number of pericyte ghosts were manually counted by an investigator blinded to the experimental group assignment.
Vascular abnormalities and the effect of induction of DR by STZ induction were also assessed by quantification of acellular capillaries, pericytes and pericyte ghosts on trypsin-digested retinal wholemounts. For quantification, 4-15 individual images were quantified for each animal and the data from each image were included in the analysis.
Subsequently, number of pericyte ghosts was quantified.

Brown Norway rats = assay: Tolerability, macroscopic ophthalmic examinations after IVT injections; type: in vivo; conditions: bilateral IVT 5 μl, three weekly injections
Description: as §3
STZ-induced cataracts are common in this model and developed moderate severity by the end of the study (FIG. 4). All test articles were well-tolerated, and no signs of ocular toxicity were identified by macroscopic ophthalmic examinations. Test articles exerted no differential effects on cataract development (FIG. 4).

kidney epithelial cells = conditions: Squires et al., 2021; cited from earlier work
[5] = 3 weekly IVT injections, SD-OCT
[6] = 3 weekly IVT injections, average per group

For `NCC(=O)N1C[C@H](NC(=O)c2ccccc2)C[C@H]1C(=O)O` [Danegaptide, (2S,4R)-1-(2-aminoacetyl)-4-benzoylamino-pyrrolidine-2-carboxylic acid], the “Protection against loss of Tight Junction organization (TiJOR)” value [1] was “completely protected; also recorded: partial protection”, the “Total retinal thickness, IN” value [2, 5] was 206 ± 1.8 μm and the “Total retinal thickness, IT” value [2, 5] was 217 ± 1.6 μm. For the same compound, the “Total retinal thickness, SN” value [2, 5] was 205 ± 1.9 μm, the “Total retinal thickness, ST” value [2, 5] was 210 ± 2.6 μm and the “Total retinal thickness, Whole Retina” value [2, 5] was 212 ± 2.2 μm. For the same compound, the “Outer retinal thickness, IN (inferior-nasal)” value [2, 6] was 121.17 μm, the “Outer retinal thickness, IT (inferior-temporal)” value [2, 6] was 123.61 μm and the “Outer retinal thickness, SN (superior-nasal)” value [2, 6] was 117.36 μm. For the same compound, the “Outer retinal thickness, ST (superior-temporal)” value [2, 6] was 118.14 μm, the “Effect on inner retinal thickness” value ([2]; regional analysis ST, SN, IT, IN) was “No biologically relevant effects” and the “Outer retinal thickness (mean)” value ([2]; weekly IVT injections at weeks 6, 7, 8, mean±S.E.M., STZ+Vehicle 123.8±0.9, naïve 119.8±0.5) was 119.7±0.8 μm. The “Reduction of EB extravasation vs STZ+Vehicle” value [3] was 68.9%, the “Evans Blue (EB) extravasation, % of STZ+Vehicle” value ([3]; normalized to STZ+Vehicle, mean±S.E.M.) was 31.1±5.3% and the “Effect on number of pericyte ghosts vs STZ+Vehicle” value ([4]; One-Way ANOVA, Dunnett's test) was “statistically significant reduction”. For the same compound, the “Acellular capillaries (number)” value ([4]; count per image, STZ+Vehicle 22 ± 1) was 20 ± 1, the “Pericytes (sum of the number of pericytes and pericyte ghosts)” value ([4]; count per image, STZ+Vehicle 52 ± 2) was 49 ± 2 and the “Tolerability / ocular toxicity” value (Brown Norway rats) was “well tolerated”. The “ATP leakage from kidney epithelial cells” value (kidney epithelial cells) was “can reduce ATP leakage”.
